The source made the active and inactive calls. The calls are words filed in the database; no cut-off is given here.
Legend:
[1] = biological target: Mitogen-activated protein kinase 11 (Homo sapiens, UniProt Q15759); assay: NanoBRET (MAPK11)
[2] = biological target: Mitogen-activated protein kinase 14 (Homo sapiens, UniProt Q16539); assay: NanoBRET (MAPK14)
[3] = biological target: Heat shock protein beta-1 (Homo sapiens, UniProt P04792); assay: Inhibition of HSP27 (Ser82) (Western blot)
Sequence of Heat shock protein beta-1 (P04792 whole entry): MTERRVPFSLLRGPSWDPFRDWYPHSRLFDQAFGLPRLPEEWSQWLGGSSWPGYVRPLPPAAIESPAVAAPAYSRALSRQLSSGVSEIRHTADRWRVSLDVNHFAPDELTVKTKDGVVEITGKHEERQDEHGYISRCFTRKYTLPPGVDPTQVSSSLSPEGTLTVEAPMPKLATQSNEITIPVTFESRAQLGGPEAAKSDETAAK

Sequence of Mitogen-activated protein kinase 11 (Q15759 whole entry): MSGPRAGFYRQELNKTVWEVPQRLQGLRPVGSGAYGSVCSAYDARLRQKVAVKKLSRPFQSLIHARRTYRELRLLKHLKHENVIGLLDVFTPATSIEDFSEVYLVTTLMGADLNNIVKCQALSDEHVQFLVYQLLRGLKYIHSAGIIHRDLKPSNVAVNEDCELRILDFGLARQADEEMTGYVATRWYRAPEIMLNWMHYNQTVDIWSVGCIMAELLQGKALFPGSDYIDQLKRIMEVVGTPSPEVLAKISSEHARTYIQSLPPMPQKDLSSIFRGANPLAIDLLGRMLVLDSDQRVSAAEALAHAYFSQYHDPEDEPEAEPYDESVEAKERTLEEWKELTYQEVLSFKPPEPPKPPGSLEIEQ
Sequence of Mitogen-activated protein kinase 14 (Q16539 whole entry): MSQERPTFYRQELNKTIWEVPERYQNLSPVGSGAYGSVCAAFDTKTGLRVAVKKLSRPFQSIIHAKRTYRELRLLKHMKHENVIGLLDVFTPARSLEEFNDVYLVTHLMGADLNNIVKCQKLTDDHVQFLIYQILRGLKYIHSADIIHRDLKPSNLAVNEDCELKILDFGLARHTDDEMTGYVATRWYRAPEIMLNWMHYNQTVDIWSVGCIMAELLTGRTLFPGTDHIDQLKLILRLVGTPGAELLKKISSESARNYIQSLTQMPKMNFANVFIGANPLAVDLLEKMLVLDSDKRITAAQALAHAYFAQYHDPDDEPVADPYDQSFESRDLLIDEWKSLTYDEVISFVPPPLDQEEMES

SMILES: CN(C(=O)c1ccccc1)c1cc(N(C)c2ccc3c(c2)CCc2ccc(C(=O)NCCN4CCOCC4)cc2C3=O)ccc1F [FM-743]
- IC50 [1]: 16.2 µM (not active)
- IC50 [2]: 11.3 µM (not active)

SMILES: O=C(NCCN1CCOCC1)c1ccc2c(c1)C(=O)c1ccc(Nc3ccc(F)c(NC(=O)c4ccccc4)c3)cc1CC2 [FS-694]
- IC50 [1]: 0.0169 µM (active)
- IC50 [3]: < 1 µM (active)
